In patent publication US8242089B2, “Sphingolipids polyalkylamine conjugates for use in transfection” (Yissum Research Development Company of the Hebrew …, priority 2003, dated 2012):

System: NIH 3T3 cells
Assay: Methylene blue toxicity assay on NIH 3T3 cells
Type: cell-based
Settings: amounts used in transfection, free assemblies or lipoplexes with luciferase plasmid, lipid/DNA charge ratios 1-16, chloride form
Protocol: Cytotoxicity was tested by the methylene blue (MB) staining assay [Elliott W M and Auersperg N. Biotech Histochem 68:29-35 (1993)]. In general, a known number of exponentially growing cells in 200 μL of medium were plated in 96-microwell, flat-bottomed plates. For each of the lipoplexes tested, 3 wells were used. Following 24 h of incubation in culture, 20 μL of different concentrations of various lipoplexes were added to each well containing untreated cells. Normal saline was added to the controls. Cells were exposed to lipoplex for 24 h. At the end of exposure the treated cells, as well as parallel control cells were washed and fixed by adding 50 μL of 2.5% glutaraldehyde to each well for 15 min. Fixed cells were rinsed 10 times with deionized water and once with borate buffer (0.1 M, pH 8.5), dried, and stained with MB (100 μL of 1% solution in 0.1 M borate buffer, pH 8.5) for 1 h at r. t. Stained cells were rinsed thoroughly with de-ionized water to remove any non-cell-bound dye and then dried. The MB bound to the fixed cells was extracted by incubation at 37° C. with 200 μL of 0.1 N HCl for 1 h, and the net optical density of the dye in each well was determined by a plate spectrophotometer (Labsystems Multyskan Bichromatic, Finland) at 620 nm.

CCCCCCCCCCCCC/C=C/[C@@H](O)[C@H](COC(=O)NCCCNCCCCNCCCN)NC(=O)CCCCCCCCCCCCCCC [CCS, N-palmitoyl D-erythro sphingosyl carbamoyl-spermine]
toxicity (living cells): non toxic
